From patent US7825129B2, “Thieno[2,3-c] isoquinolines for use as inhibitors of PARP” (priority 2000, dated 2010)

Assays:
[1] = molecular target: T1, poly(ADP-ribose) polymerase (PARP) (Bos taurus, UniProt P18493); assay: Activity against purified PARP, [3H]NAD incorporation; type: biochemical; settings: purified PARP from foetal calf thymus, 37° C., 30 mins; read-out: IC50 of PARP inhibitors tested on enzyme prepared from bovine thymus
T1 construct: purified PARP derived from foetal calf thymus; from tissue; host or cells: foetal calf thymus
Method: The activity on PARP was evaluated using purified PARP derived from foetal calf thymus, as per Ito et al. (J. Biol. Chem. […]: 3647, 1979). […] The active fractions were used for the activity tests carried out as per Banasik et al. (J. Biol. Chem. 267: 1569, 1992). […] The reaction was terminated with 10% of trichloroacetic acid and the radioactivity associated with the protein was evaluated in a liquid scintillation spectrometer.

[2] = test system: rats with permanent occlusion of the medial cerebral artery; assay: MCAO stroke model in rats, infarct volume; type: in vivo, rat; settings: 3-10 mg/kg i.p., infarct volume measured 72 hrs after occlusion
Method: (§1) 2) The biological activity was evaluated in primary neuronal cultures exposed to oxygen and glucose deprivation (see: Neuropharmacology 38: 1007-[…]) and in vivo in rats with MCA [sic]. The volume of the infarct was measured 72 hrs after the occlusion using a method described previously (Cozzi et al., J. Cerebrali Blood Flow Metabolism 19: 771-777; 1999).
In this stroke model, the compound (3-10 mg/kg i.p.) reduced by 40% the volume of necrotic brain induced by the permanent occlusion of the medial cerebral artery.

[3] = test system: primary neuronal cultures; assay: Post-ischaemic neuronal death in primary neuronal cultures exposed to oxygen and glucose deprivation; type: cell-based; settings: read-out: IC50 for reducing post-ischaemic neuronal death
Method: as §1

T1 sequence (P18493 whole entry): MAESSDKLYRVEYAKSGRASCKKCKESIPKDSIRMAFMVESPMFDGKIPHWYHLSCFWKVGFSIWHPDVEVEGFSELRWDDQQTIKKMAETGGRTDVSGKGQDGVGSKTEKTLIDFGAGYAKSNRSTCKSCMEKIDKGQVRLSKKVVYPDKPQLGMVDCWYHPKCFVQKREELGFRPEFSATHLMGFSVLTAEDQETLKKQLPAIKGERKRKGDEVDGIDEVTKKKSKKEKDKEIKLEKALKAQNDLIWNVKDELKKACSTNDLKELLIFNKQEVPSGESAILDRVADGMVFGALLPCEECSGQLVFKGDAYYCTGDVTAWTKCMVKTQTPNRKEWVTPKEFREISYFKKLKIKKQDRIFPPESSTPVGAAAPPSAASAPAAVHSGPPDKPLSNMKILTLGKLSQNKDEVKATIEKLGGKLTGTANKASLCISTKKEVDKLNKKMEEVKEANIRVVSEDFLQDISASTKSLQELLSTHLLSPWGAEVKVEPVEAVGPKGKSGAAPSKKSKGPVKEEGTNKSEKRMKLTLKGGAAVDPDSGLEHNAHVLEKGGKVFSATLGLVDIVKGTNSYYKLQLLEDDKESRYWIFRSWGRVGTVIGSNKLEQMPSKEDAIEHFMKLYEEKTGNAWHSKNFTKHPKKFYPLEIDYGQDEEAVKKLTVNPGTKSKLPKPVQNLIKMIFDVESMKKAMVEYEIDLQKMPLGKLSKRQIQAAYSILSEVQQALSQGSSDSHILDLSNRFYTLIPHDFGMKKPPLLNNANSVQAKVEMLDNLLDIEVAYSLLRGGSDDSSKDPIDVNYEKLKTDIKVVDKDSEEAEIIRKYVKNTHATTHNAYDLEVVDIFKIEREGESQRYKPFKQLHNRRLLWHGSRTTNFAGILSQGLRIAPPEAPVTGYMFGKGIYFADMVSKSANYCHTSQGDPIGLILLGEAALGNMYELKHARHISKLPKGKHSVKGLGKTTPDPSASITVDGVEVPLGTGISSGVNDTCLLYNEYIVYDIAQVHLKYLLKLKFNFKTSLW

| Structure (SMILES) | IC50 [1] | melting point | reduction of the volume of necrotic brain [2] | IC50 [3] |
| --- | --- | --- | --- | --- |
| O=c1[nH]c2sccc2c2ccccc12 [Example 1, Thieno[2,3-c]isoquinolin-5(4H)-one] |  |  | 40% | ~3000 nM |
| O=c1[nH]c2sccc2c2c(O)cccc12 [Example 2, 9-Hydroxythieno[2,3-c]isoquinolin-5(4H)-one] | 100 nM | 298 to 301 °C |  |  |
| COc1cccc2c(=O)[nH]c3sccc3c12 [Example 3, 9-Methoxythieno[2,3-c]isoquinolin-5(4H)-one] | 300 nM | 198 to 200 °C |  |  |

Continued by falling IC50 [1], values first:

| IC50 [1] | melting point | Structure (SMILES) | reduction of the volume of necrotic brain [2] | IC50 [3] |
| --- | --- | --- | --- | --- |
| 90000 nM |  | NC(=O)c1ccccc1 [Benzamide, reference compound] |  |  |
| 50 nM | 297 to 299 °C | Nc1cccc2c(=O)[nH]c3sccc3c12 [Example 4, 9-Aminothieno[2,3-c]isoquinolin-5(4H)-one] |  |  |
